Legend:
wild oat [1] = experiment: Test Example 5: herbicidal effect by foliage application, plastic box (Table 20, symbol I); format: in vivo, wild oat (Avena fatua); conditions: 320 g/ha
In short: (§1)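 Foliar spray test: emulsion formulation diluted in water to a set application rate, sprayed onto 14-day-old plants raised in diluvial soil at 25° C to 30° C under glass. Both herbicidal effect and crop effect rated visually three weeks later.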

green foxtail [2] = experiment: Test Example 4: herbicidal effect by soil treatment (Table 19, symbol G); format: in vivo, green foxtail (Setaria viridis); conditions: amount of applied herbicide 320 g/ha
In short: (§2)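 Herbicidal effect was rated 3 weeks after treatment, using the scoring criteria of an earlier test. The compound, formulated as an emulsion and diluted in water to a set herbicide amount, had been sprayed uniformly on soil over freshly sown seeds. Growth took place in a greenhouse at 25° C. to 30° C.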

chickweed [3] = experiment: Test Example 5: herbicidal effect by foliage application, plastic box (Table 20, symbol P); format: in vivo, common chickweed (Stellaria media); conditions: 320 g/ha
In short: as §1

velvetleaf [4] = experiment: Test Example 5: herbicidal effect by foliage application, plastic box (Table 20, symbol M); format: in vivo, velvetleaf (Abutilon theophrasti); conditions: 320 g/ha
In short: as §1

redroot pigweed [5] = experiment: Test Example 5: herbicidal effect by foliage application, plastic box (Table 20, symbol N); format: in vivo, redroot pigweed (Amaranthus retroflexus); conditions: 320 g/ha
In short: as §1

barnyard grass [6] = experiment: Test Example 4: herbicidal effect by soil treatment (Table 19, symbol H); format: in vivo, barnyard grass (Echinochloa crus-galli); conditions: amount of applied herbicide 320 g/ha
In short: as §2

windgrass [7] = experiment: Test Example 5: herbicidal effect by foliage application, plastic box (Table 20, symbol L); format: in vivo, windgrass (Apera spica-venti); conditions: 320 g/ha
In short: as §1

rice flat sedge = experiment: Test Example 3: herbicidal effect by foliage application, Wagner pot (Table 18, symbol E); format: in vivo, rice flat sedge (Cyperus iria); conditions: 320 g/ha
In short: (§3)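 Plants were sown in alluvial soil held under 0.1–0.5 cm standing water and grown 14 days in a greenhouse at 25–30 °C. An emulsifiable formulation, water-diluted to the set dose, was then sprayed onto the foliage, and effects were scored three weeks later using previously defined criteria.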

blackgrass [8] = experiment: Test Example 4: herbicidal effect by soil treatment (Table 19, symbol J); format: in vivo, blackgrass (Alopecurus myosuroides); conditions: amount of applied herbicide 320 g/ha
In short: as §2

Italian ryegrass [9] = experiment: Test Example 4: herbicidal effect by soil treatment (Table 19, symbol K); format: in vivo, Italian ryegrass (Lolium multiflorum); conditions: amount of applied herbicide 320 g/ha
In short: as §2

southern crabgrass [10] = experiment: Test Example 5: herbicidal effect by foliage application, plastic box (Table 20, symbol F); format: in vivo, southern crabgrass (Digitaria ciliaris); conditions: 320 g/ha
In short: as §1

barnyard grass [11] = experiment: Test Example 5: herbicidal effect by foliage application, plastic box (Table 20, symbol H); format: in vivo, barnyard grass (Echinochloa crus-galli); conditions: 320 g/ha
In short: as §1

green foxtail [12] = experiment: Test Example 5: herbicidal effect by foliage application, plastic box (Table 20, symbol G); format: in vivo, green foxtail (Setaria viridis); conditions: 320 g/ha
In short: as §1

Italian ryegrass [13] = experiment: Test Example 5: herbicidal effect by foliage application, plastic box (Table 20, symbol K); format: in vivo, Italian ryegrass (Lolium multiflorum); conditions: 320 g/ha
In short: as §1

persian speedwell [14] = experiment: Test Example 5: herbicidal effect by foliage application, plastic box (Table 20, symbol R); format: in vivo, Persian speedwell (Veronica persica); conditions: 320 g/ha
In short: as §1

blackgrass [15] = experiment: Test Example 5: herbicidal effect by foliage application, plastic box (Table 20, symbol J); format: in vivo, blackgrass (Alopecurus myosuroides); conditions: 320 g/ha
In short: as §1

velvetleaf [16] = experiment: Test Example 4: herbicidal effect by soil treatment (Table 19, symbol M); format: in vivo, velvetleaf (Abutilon theophrasti); conditions: amount of applied herbicide 320 g/ha
In short: as §2

Chinese sprangletop = experiment: Test Example 3: herbicidal effect by foliage application, Wagner pot (Table 18, symbol D); format: in vivo, chinese sprangletop (Leptochloa chinensis); conditions: 320 g/ha
In short: as §3

Japanese bulrush = experiment: Test Example 1: herbicidal activity, application before weed generation under submerged conditions (Table 16, symbol B); format: in vivo, Japanese bulrush (Schoenoplectus juncoides); conditions: amount of applied herbicide 320 g/ha
In short: (§4)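 Alluvial soil was flooded to 4 cm depth, weed seeds were sown mixed and 2.5-leaf rice seedlings were transplanted. On sowing day, the compound's emulsion, diluted in water to a set dose, was applied to the water surface. Plants grew at 25–30 °C and were scored 0–5 after three weeks.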

windgrass [17] = experiment: Test Example 4: herbicidal effect by soil treatment (Table 19, symbol L); format: in vivo, windgrass (Apera spica-venti); conditions: amount of applied herbicide 320 g/ha
In short: as §2

redroot pigweed [18] = experiment: Test Example 4: herbicidal effect by soil treatment (Table 19, symbol N); format: in vivo, redroot pigweed (Amaranthus retroflexus); conditions: amount of applied herbicide 320 g/ha
In short: as §2

lambsquarters [19] = experiment: Test Example 5: herbicidal effect by foliage application, plastic box (Table 20, symbol O); format: in vivo, lambsquarters (Chenopodium album); conditions: 320 g/ha
In short: as §1

chickweed [20] = experiment: Test Example 4: herbicidal effect by soil treatment (Table 19, symbol P); format: in vivo, common chickweed (Stellaria media); conditions: amount of applied herbicide 320 g/ha
In short: as §2

southern crabgrass [21] = experiment: Test Example 4: herbicidal effect by soil treatment (Table 19, symbol F); format: in vivo, southern crabgrass (Digitaria ciliaris); conditions: amount of applied herbicide 320 g/ha
In short: as §2

persian speedwell [22] = experiment: Test Example 4: herbicidal effect by soil treatment (Table 19, symbol R); format: in vivo, Persian speedwell (Veronica persica); conditions: amount of applied herbicide 320 g/ha
In short: as §2

oval-leafed pondweed = experiment: Test Example 1: herbicidal activity, application before weed generation under submerged conditions (Table 16, symbol C); format: in vivo, oval-leafed pondweed (Monochoria vaginalis); conditions: amount of applied herbicide 320 g/ha
In short: as §4

late watergrass = experiment: Test Example 1: herbicidal activity, application before weed generation under submerged conditions (Table 16, symbol A); format: in vivo, late watergrass (Echinochloa oryzicola); conditions: amount of applied herbicide 320 g/ha
In short: as §4

barnyard grass [23] = experiment: Test Example 3: herbicidal effect by foliage application, Wagner pot (Table 18, symbol H); format: in vivo, barnyard grass (Echinochloa crus-galli); conditions: 320 g/ha
In short: as §3

lambsquarters [24] = experiment: Test Example 4: herbicidal effect by soil treatment (Table 19, symbol O); format: in vivo, lambsquarters (Chenopodium album); conditions: amount of applied herbicide 320 g/ha
In short: as §2

wild oat [25] = experiment: Test Example 4: herbicidal effect by soil treatment (Table 19, symbol I); format: in vivo, wild oat (Avena fatua); conditions: amount of applied herbicide 320 g/ha
In short: as §2

[26] = foliage application, three weeks after application
[27] = foliage application after 14-day growth, evaluated three weeks after application

Row | SMILES | Herbicidal effect by soil treatment, G: green foxtail (green foxtail [2]) | Herbicidal effect by soil treatment, H: barnyard grass (barnyard grass [6]) | herbicidal effect on rice flat sedge (E) (rice flat sedge) | Herbicidal effect by soil treatment, J: blackgrass (blackgrass [8]) | Herbicidal effect by soil treatment, K: Italian ryegrass (Italian ryegrass [9]) | Herbicidal effect by soil treatment, M: velvetleaf (velvetleaf [16]) | herbicidal effect on Chinese sprangletop (D) (Chinese sprangletop) | Herbicidal effect, B: Japanese bulrush (Japanese bulrush) | Herbicidal effect by soil treatment, L: windgrass (windgrass [17]) | Herbicidal effect by soil treatment, N: redroot pigweed (redroot pigweed [18]) | Herbicidal effect by soil treatment, P: chickweed (chickweed [20]) | Herbicidal effect by soil treatment, F: southern crabgrass (southern crabgrass [21]) | Herbicidal effect by soil treatment, R: persian speedwell (persian speedwell [22]) | Herbicidal effect, C: oval-leafed pondweed (oval-leafed pondweed) | Herbicidal effect, A: late watergrass (late watergrass) | herbicidal effect on barnyard grass (H) (barnyard grass [23]) | Herbicidal effect by soil treatment, O: lambsquarters (lambsquarters [24]) | Herbicidal effect by soil treatment, I: wild oat (wild oat [25]) | other results
1 | COCc1ccc2c(-c3c(O)c(C)nn(C)c3=O)c(-c3ccccc3OC)sc2c1 [3-137] | 1 (Herbicidal rate of 5% or more and less than 20%) | 5 (Herbicidal rate of 90% or more (almost completely withered)) | 5 (Herbicidal rate of 90% or more (almost completely withered)) | 0 (Herbicidal rate of 5% or less (almost no effect)) | 1 (Herbicidal rate of 5% or more and less than 20%) | 0 (Herbicidal rate of 5% or less (almost no effect)) | 5 (Herbicidal rate of 90% or more (almost completely withered)) | 0 (Herbicidal rate of 5% or less (almost no effect)) | 0 (Herbicidal rate of 5% or less (almost no effect)) | 0 (Herbicidal rate of 5% or less (almost no effect)) | 5 (Herbicidal rate of 90% or more (almost completely withered)) | 0 (Herbicidal rate of 5% or less (almost no effect)) | 4 (Herbicidal rate of 70% or more and less than 90%) | 0 (Herbicidal rate of 5% or less (almost no effect)) | 3 (Herbicidal rate of 40% or more and less than 70%) | 3 (Herbicidal rate of 40% or more and less than 70%) | 0 (Herbicidal rate of 5% or less (almost no effect)) | 1 (Herbicidal rate of 5% or more and less than 20%) | I: wild oat, herbicidal effect grade (wild oat [1]; [26]): 4 (Herbicidal rate of 70% or more and less than 90%); P: chickweed, herbicidal effect grade (chickweed [3]; [26]): 5 (Herbicidal rate of 90% or more (almost completely withered)); M: velvetleaf, herbicidal effect grade (velvetleaf [4]; [26]): 5 (Herbicidal rate of 90% or more (almost completely withered)); N: redroot pigweed, herbicidal effect grade (redroot pigweed [5]; [26]): 1 (Herbicidal rate of 5% or more and less than 20%); L: windgrass, herbicidal effect grade (windgrass [7]; [26]): 4 (Herbicidal rate of 70% or more and less than 90%); F: southern crabgrass, herbicidal effect grade (southern crabgrass [10]; [26]): 5 (Herbicidal rate of 90% or more (almost completely withered)); H: barnyard grass, herbicidal effect grade (barnyard grass [11]; [26]): 3 (Herbicidal rate of 40% or more and less than 70%); G: green foxtail, herbicidal effect grade (green foxtail [12]; [26]): 5 (Herbicidal rate of 90% or more (almost completely withered)); K: Italian ryegrass, herbicidal effect grade (Italian ryegrass [13]; [26]): 4 (Herbicidal rate of 70% or more and less than 90%); R: persian speedwell, herbicidal effect grade (persian speedwell [14]; [26]): 5 (Herbicidal rate of 90% or more (almost completely withered)); J: blackgrass, herbicidal effect grade (blackgrass [15]; [26]): 4 (Herbicidal rate of 70% or more and less than 90%); O: lambsquarters, herbicidal effect grade (lambsquarters [19]; [26]): 0 (Herbicidal rate of 5% or less (almost no effect))
2 | COc1ccccc1-c1sc2c(F)cccc2c1-c1c(O)c(C)nn(C)c1=O [4-003] | 0 (Herbicidal rate of 5% or less (almost no effect)) | 0 (Herbicidal rate of 5% or less (almost no effect)) | 3 (Herbicidal rate of 40% or more and less than 70%) | 0 (Herbicidal rate of 5% or less (almost no effect)) | 0 (Herbicidal rate of 5% or less (almost no effect)) | 0 (Herbicidal rate of 5% or less (almost no effect)) | 3 (Herbicidal rate of 40% or more and less than 70%) | 0 (Herbicidal rate of 5% or less (almost no effect)) | 0 (Herbicidal rate of 5% or less (almost no effect)) | 4 (Herbicidal rate of 70% or more and less than 90%) | 1 (Herbicidal rate of 5% or more and less than 20%) | 0 (Herbicidal rate of 5% or less (almost no effect)) | 1 (Herbicidal rate of 5% or more and less than 20%) | 0 (Herbicidal rate of 5% or less (almost no effect)) | 3 (Herbicidal rate of 40% or more and less than 70%) | 3 (Herbicidal rate of 40% or more and less than 70%) | 3 (Herbicidal rate of 40% or more and less than 70%) | 0 (Herbicidal rate of 5% or less (almost no effect)) | herbicidal effect on I: wild oat (evaluation grade 0-5) (wild oat [1]; [27]): 0 (Herbicidal rate of 5% or less (almost no effect)); herbicidal effect on P: chickweed (evaluation grade 0-5) (chickweed [3]; [27]): 5 (Herbicidal rate of 90% or more (almost completely withered)); herbicidal effect on M: velvetleaf (evaluation grade 0-5) (velvetleaf [4]; [27]): 3 (Herbicidal rate of 40% or more and less than 70%); herbicidal effect on N: redroot pigweed (evaluation grade 0-5) (redroot pigweed [5]; [27]): 3 (Herbicidal rate of 40% or more and less than 70%); herbicidal effect on L: windgrass (evaluation grade 0-5) (windgrass [7]; [27]): 3 (Herbicidal rate of 40% or more and less than 70%); herbicidal effect on F: southern crabgrass (evaluation grade 0-5) (southern crabgrass [10]; [27]): 1 (Herbicidal rate of 5% or more and less than 20%); herbicidal effect on H: barnyard grass (evaluation grade 0-5) (barnyard grass [11]; [27]): 1 (Herbicidal rate of 5% or more and less than 20%); herbicidal effect on G: green foxtail (evaluation grade 0-5) (green foxtail [12]; [27]): 4 (Herbicidal rate of 70% or more and less than 90%); herbicidal effect on K: Italian ryegrass (evaluation grade 0-5) (Italian ryegrass [13]; [27]): 4 (Herbicidal rate of 70% or more and less than 90%); herbicidal effect on R: persian speedwell (evaluation grade 0-5) (persian speedwell [14]; [27]): 5 (Herbicidal rate of 90% or more (almost completely withered)); herbicidal effect on J: blackgrass (evaluation grade 0-5) (blackgrass [15]; [27]): 4 (Herbicidal rate of 70% or more and less than 90%); herbicidal effect on O: lambsquarters (evaluation grade 0-5) (lambsquarters [19]; [27]): 3 (Herbicidal rate of 40% or more and less than 70%)

From patent publication US20230085307A1, “PYRIDAZINONE COMPOUND AND HERBICIDE” (NISSAN CHEMICAL CORPORATION, priority 2019, published 2023)
